Format in all cases: biochemical
Assay [1] has as its target T1, human Yes1 enzyme (Homo sapiens, UniProt P07947).
T1 construct: made in house
As to the kind of experiment: Yes1 enzyme inhibitory activity (time-resolved fluorometry, biotinylated peptide phosphorylation). To be noted: read-out: YES_IC50. An outline of the steps:
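Inhibition was expressed against a compound-free control to give IC50, using TR-FRET read-out (Eu-cryptate anti-pTyr antibody, streptavidin-XL665).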

In assay [2] the target is T2, human Src enzyme (Homo sapiens, UniProt P12931).
T2 construct: purchased Carna Biosciences, Inc. 08-173
T2 sequence (P12931 whole entry): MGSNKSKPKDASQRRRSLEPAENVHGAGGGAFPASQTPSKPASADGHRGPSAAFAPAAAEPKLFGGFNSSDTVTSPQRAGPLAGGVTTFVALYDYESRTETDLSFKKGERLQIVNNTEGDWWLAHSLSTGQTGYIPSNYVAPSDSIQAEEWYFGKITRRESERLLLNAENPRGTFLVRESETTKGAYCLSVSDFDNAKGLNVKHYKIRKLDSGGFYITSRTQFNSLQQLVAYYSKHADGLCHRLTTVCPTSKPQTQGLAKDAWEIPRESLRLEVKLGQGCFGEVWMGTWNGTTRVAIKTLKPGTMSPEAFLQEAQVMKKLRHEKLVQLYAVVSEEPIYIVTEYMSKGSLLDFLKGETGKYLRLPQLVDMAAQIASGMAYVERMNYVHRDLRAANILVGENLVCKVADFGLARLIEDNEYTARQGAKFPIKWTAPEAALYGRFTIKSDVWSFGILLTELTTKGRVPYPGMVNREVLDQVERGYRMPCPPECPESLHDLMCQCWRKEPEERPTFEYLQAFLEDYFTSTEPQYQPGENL
As to the kind of experiment: Src enzyme inhibitory activity (time-resolved fluorometry, biotinylated peptide phosphorylation). To be noted: read-out: SRC_IC50. A digest of the protocol: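 Compounds were tested for blocking tyrosine phosphorylation of a biotinylated peptide substrate by recombinant human Src. Phosphorylated product was quantified by time-resolved fluorometry using europium cryptate and XL665 conjugates, and IC50 was calculated against the compound-free control.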

The target in assay [3] is T3, human Lck enzyme (Homo sapiens, UniProt P06239).
T3 construct: purchased Carna Biosciences, Inc. 08-170
T3 sequence (P06239 whole entry): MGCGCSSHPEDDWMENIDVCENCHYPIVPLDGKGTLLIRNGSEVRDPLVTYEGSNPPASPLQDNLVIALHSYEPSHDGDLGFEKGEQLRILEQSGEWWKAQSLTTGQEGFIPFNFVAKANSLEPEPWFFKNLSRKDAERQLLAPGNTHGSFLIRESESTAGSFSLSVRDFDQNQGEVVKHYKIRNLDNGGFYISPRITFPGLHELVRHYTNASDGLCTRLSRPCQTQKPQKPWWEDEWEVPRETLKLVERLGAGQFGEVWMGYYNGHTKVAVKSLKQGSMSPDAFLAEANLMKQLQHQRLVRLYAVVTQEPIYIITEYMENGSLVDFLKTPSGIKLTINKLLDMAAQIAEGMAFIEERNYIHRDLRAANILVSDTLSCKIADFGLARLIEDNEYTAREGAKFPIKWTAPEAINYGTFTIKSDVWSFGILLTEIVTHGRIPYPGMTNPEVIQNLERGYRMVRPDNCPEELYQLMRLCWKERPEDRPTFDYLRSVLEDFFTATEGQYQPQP
The assay can be described thus: Lck enzyme inhibitory activity (time-resolved fluorometry, biotinylated peptide phosphorylation). To be noted: read-out: LCK_IC50. An outline of the steps: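 Readout pairs a europium cryptate-labelled anti-phosphotyrosine antibody with XL665-streptavidin, measured by time-resolved fluorescence. IC50 derived from percent inhibition against untreated controls.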

[4] abbreviates: biotinylated peptide phosphorylation.

pIC50: −log10 of the molar value. Read-outs that look alike come from different tables or passages of the source.

T1 sequence (P07947 whole entry): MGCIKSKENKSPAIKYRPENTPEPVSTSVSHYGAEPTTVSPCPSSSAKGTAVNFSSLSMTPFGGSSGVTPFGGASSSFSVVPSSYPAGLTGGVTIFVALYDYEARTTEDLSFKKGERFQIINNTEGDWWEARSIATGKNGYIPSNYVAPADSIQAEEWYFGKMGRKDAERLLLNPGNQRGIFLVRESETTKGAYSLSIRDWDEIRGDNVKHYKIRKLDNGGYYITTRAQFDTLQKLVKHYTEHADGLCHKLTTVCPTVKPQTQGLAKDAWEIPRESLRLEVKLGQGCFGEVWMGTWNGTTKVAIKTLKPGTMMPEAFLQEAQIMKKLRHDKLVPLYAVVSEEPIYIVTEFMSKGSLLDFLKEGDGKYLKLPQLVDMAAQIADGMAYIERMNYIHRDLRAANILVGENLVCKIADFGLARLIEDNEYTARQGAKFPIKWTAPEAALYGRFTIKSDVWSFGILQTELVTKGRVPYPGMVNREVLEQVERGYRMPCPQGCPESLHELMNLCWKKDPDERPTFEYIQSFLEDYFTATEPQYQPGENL

Turning to `Cc1cc(Oc2ccccc2F)cc(F)c1-n1ncc(C(=O)c2cc3cc(OC(F)F)c(NS(=O)(=O)CCCF)cc3[nH]2)c1N` [Example 4-24-006, N-[2-[5-amino-1-[2-fluoro-4-(2-fluorophenoxy)-6-methylphenyl]pyrazole-4-carbonyl]-5-(difluoromethoxy)-1H-indol-6-yl]-3-fluoropropane-1-sulfonamide], the pIC50 is 8.35 in assay [1] (setting [4]), 6.70 in assay [2] (setting [4]) and 7.29 in assay [3] (setting [4]).

Consider `Cc1cc(Oc2ccccc2F)cc(F)c1-n1ncc(C(=O)c2cc3cc(OCC(F)F)c(N4CCC(N5CCOCC5)CC4)cc3[nH]2)c1N` [Example 4-25-029, [5-amino-1-[2-fluoro-4-(2-fluorophenoxy)-6-methylphenyl]pyrazol-4-yl]-[5-(2,2-difluoroethoxy)-6-(4-morpholin-4-ylpiperidin-1-yl)-1H-indol-2-yl]methanone], for which the figures for the pIC50 in assay [1] (setting [4]), in assay [2] (setting [4]) and in assay [3] (setting [4]) were 8.62, 7.68 and 8.17, respectively.

Turning to `COc1cc2[nH]c(C(=O)c3cnn(-c4cnc(Oc5ccccc5F)cc4C)c3N)cc2cc1NS(C)(=O)=O` [Example 4-1-014, N-[2-[5-amino-1-[6-(2-fluorophenoxy)-4-methylpyridin-3-yl]pyrazole-4-carbonyl]-6-methoxy-1H-indol-5-yl]methanesulfonamide], the pIC50 was 9.44 in assay [1] (setting [4]), 8.24 in assay [2] (setting [4]) and 8.85 in assay [3] (setting [4]).

`Cc1cc2[nH]c(C(=O)c3cnn(-c4ccc(Oc5cccc(F)c5F)cc4C)c3N)cc2cc1NS(C)(=O)=O` [Example 4-2-050, N-[2-[5-amino-1-[4-(2,3-difluorophenoxy)-2-methylphenyl]pyrazole-4-carbonyl]-6-methyl-1H-indol-5-yl]methanesulfonamide]: the pIC50 was 9.70 in assay [1] (setting [4]), 8.15 in assay [2] (setting [4]) and 8.77 in assay [3] (setting [4]).

For `Cc1cc(Oc2c(F)cccc2F)ncc1-n1ncc(C(=O)c2cc3cc(OC(F)F)c(N4CCCC4=O)cc3[nH]2)c1N` [Example 4-21-008, 1-[2-[5-amino-1-[6-(2,6-difluorophenoxy)-4-methylpyridin-3-yl]pyrazole-4-carbonyl]-5-(difluoromethoxy)-1H-indol-6-yl]pyrrolidin-2-one], the pIC50 in assay [1] (setting [4]) was 8.39; in assay [2] (setting [4]) it was 7.60; in assay [3] (setting [4]) it was 8.18.

Consider `Cc1cc(Oc2ccccc2F)ccc1-n1ncc(C(=O)c2cc3cc(OCC(F)F)c(C4CCN(S(C)(=O)=O)CC4)cc3[nH]2)c1N` [Example 4-17-015, [5-amino-1-[4-(2-fluorophenoxy)-2-methylphenyl]pyrazol-4-yl]-[5-(2,2-difluoroethoxy)-6-(1-methylsulfonylpiperidin-4-yl)-1H-indol-2-yl]methanone], for which the pIC50 is 8.30 in assay [1] (setting [4]), 7.85 in assay [2] (setting [4]) and 7.85 in assay [3] (setting [4]).

Regarding `Cc1cc(Oc2cccc(F)c2)ccc1-n1ncc(C(=O)c2cc3cc(C4CCN(C(C)C)CC4)c(F)cc3[nH]2)c1N` [Example 5-1-005, [5-amino-1-[4-(3-fluorophenoxy)-2-methylphenyl]pyrazol-4-yl]-[6-fluoro-5-(1-propan-2-ylpiperidin-4-yl)-1H-indol-2-yl] methanone], the figures for the pIC50 in assay [1], in assay [2] and in assay [3] were 9.15, 7.43 and 8.38, respectively.

Consider `Cc1cc(Oc2c(F)cccc2F)ncc1-n1ncc(C(=O)c2cc3cc(OCC(F)F)c(N4CCCS4(=O)=O)cc3[nH]2)c1N` [Example 4-25-011, [5-amino-1-[6-(2,6-difluorophenoxy)-4-methylpyridin-3-yl]pyrazol-4-yl]-[5-(2,2-difluoroethoxy)-6-(1,1-dioxo-1,2-thiazolidin-2-yl)-1H-indol-2-yl]methanone], for which the pIC50 in assay [1] (setting [4]) is 8.85; in assay [2] (setting [4]), 7.96; in assay [3] (setting [4]), 8.39.

Regarding `Cc1cc(Oc2ccccc2F)ccc1-n1ncc(C(=O)c2cc3cc(N4CCOCC4)c(NC4CCN(S(C)(=O)=O)CC4)cc3[nH]2)c1N` [Example 5-1-129, [5-amino-1-[4-(2-fluorophenoxy)-2-methylphenyl]pyrazol-4-yl]-[6-[(1-methylsulfonylpiperidin-4-yl)amino]-5-morpholin-4-yl-1H-indol-2-yl]methanone], the pIC50 in assay [1] is 9.21; in assay [2] it was 8.14; in assay [3] it was 8.34.

Regarding `Cc1cc(Oc2ccccc2F)ccc1-n1ncc(C(=O)c2cc3cc(F)c(NS(=O)(=O)NC(C)C)cc3[nH]2)c1N` [Example 4-5-004, [5-amino-1-[4-(2-fluorophenoxy)-2-methylphenyl]pyrazol-4-yl]-[5-fluoro-6-(propan-2-ylsulfamoylamino)-1H-indol-2-yl]methanone], the values for the pIC50 in assay [1] (setting [4]), in assay [2] (setting [4]) and in assay [3] (setting [4]) were 8.48, 7.19 and 7.39, respectively.

With `Cc1cc(Oc2cccc(F)c2F)cc(F)c1-n1ncc(C(=O)c2cc3cc(F)c(NS(=O)(=O)N4CCOCC4)cc3[nH]2)c1N` [Example 4-5-011, N-[2-[5-amino-1-[4-(2,3-difluorophenoxy)-2-fluoro-6-methylphenyl]pyrazole-4-carbonyl]-5-fluoro-1H-indol-6-yl]morpholine-4-sulfonamide], the pIC50 was 8.80 in assay [1] (setting [4]), 6.96 in assay [2] (setting [4]) and 7.19 in assay [3] (setting [4]).

As for `COc1cc2cc(C(=O)c3cnn(-c4c(C)cc(Oc5ccccc5F)cc4F)c3N)[nH]c2cc1NS(=O)(=O)CC(=O)N1CCCC1` [Example 5-1-130, N-[2-[5-amino-1-[2-fluoro-4-(2-fluorophenoxy)-6-methylphenyl]pyrazole-4-carbonyl]-5-methoxy-1H-indol-6-yl]-2-oxo-2-pyrrolidin-1-ylethanesulfonamide], the figures for the pIC50 in assay [1], in assay [2] and in assay [3] were 9.25, 7.89 and 8.42, respectively.

For `Cc1cc2cc(C(=O)c3cnn(-c4cnc(Oc5c(F)cccc5F)cc4C)c3N)[nH]c2cc1N1CC(C)(C)NS1(=O)=O` [Example 5-1-313, [5-amino-1-[6-(2,6-difluorophenoxy)-4-methylpyridin-3-yl]pyrazol-4-yl]-[6-(4,4-dimethyl-1,1-dioxo-1,2,5-thiadiazolidin-2-yl)-5-methyl-1H-indol-2-yl]methanone], the values for the pIC50 in assay [1], in assay [2] and in assay [3] were 8.55, 7.14 and 7.72, respectively.

`COc1cc2cc(C(=O)c3cnn(-c4ccc(Oc5ccccc5F)cc4C)c3N)[nH]c2cc1NS(C)(=O)=O` [Example 4-1-004, N-[2-[5-Amino-1-[4-(2-fluorophenoxy)-2-methylphenyl]pyrazole-4-carbonyl]-5-methoxy-1H-indol-6-yl]methanesulfonamide]: the figures for the pIC50 in assay [1] (setting [4]), in assay [2] (setting [4]) and in assay [3] (setting [4]) were 9.28, 7.68 and 8.47, respectively.

On to `Cc1cc2cc(C(=O)c3cnn(-c4ccc(Oc5ccccc5F)cc4C)c3N)[nH]c2cc1N1C(=O)NC2(CCNC2)C1=O` (stereo not drawn) [Example 5-1-365, 3-[2-[5-amino-1-[4-(2-fluorophenoxy)-2-methylphenyl]pyrazole-4-carbonyl]-5-methyl-1H-indol-6-yl]-1,3,7-triazaspiro[4.4]nonane-2,4-dione], for which the pIC50 was 8.82 in assay [1], 7.74 in assay [2] and 8.24 in assay [3].

`Cc1cc2cc(C(=O)c3cnn(-c4cnc(Oc5c(F)cccc5F)cc4C)c3N)[nH]c2cc1NS(=O)(=O)c1cccc(C#N)n1` [Example 5-1-536, N-[2-[5-amino-1-[6-(2,6-difluorophenoxy)-4-methylpyridin-3-yl]pyrazole-4-carbonyl]-5-methyl-1H-indol-6-yl]-6-cyanopyridine-2-sulfonamide]: the pIC50 in assay [1] (setting [4]) was 8.04; in assay [2] (setting [4]), 6.25; in assay [3] (setting [4]) it was 7.04.

`Cc1cc(Oc2cccc(F)c2F)cc(F)c1-n1ncc(C(=O)c2cc3cc(NS(C)(=O)=O)c(Cl)cc3[nH]2)c1N` [Example 4-2-094, N-[2-[5-amino-1-[4-(2,3-difluorophenoxy)-2-fluoro-6-methylphenyl]pyrazole-4-carbonyl]-6-chloro-1H-indol-5-yl]methanesulfonamide]: the pIC50 was 8.70 in assay [1] (setting [4]), 7.48 in assay [2] (setting [4]) and 8.09 in assay [3] (setting [4]).

`Cc1cc(-n2ncc(C(=O)c3cc4cc(OCC(F)F)c(C5CCOCC5)cc4[nH]3)c2N)ccc1Oc1ccccc1F` [Example 5-1-258, [5-amino-1-[4-(2-fluorophenoxy)-3-methylphenyl]pyrazol-4-yl]-[5-(2,2-difluoroethoxy)-6-(oxan-4-yl)-1H-indol-2-yl] methanone]: the pIC50 is 7.74 in assay [1], 5.54 in assay [2] and 6.14 in assay [3].

As to `Cc1cc(Oc2c(F)cccc2F)ncc1-n1ncc(C(=O)c2cc3cc(OC(F)F)c(N4CCC(N5CCOCC5)CC4)cc3[nH]2)c1N` [Example 4-25-031, [5-amino-1-[6-(2,6-difluorophenoxy)-4-methylpyridin-3-yl]pyrazol-4-yl]-[5-(difluoromethoxy)-6-(4-morpholin-4-ylpiperidin-1-yl)-1H-indol-2-yl]methanone], the pIC50 in assay [1] (setting [4]) is 8.72; in assay [2] (setting [4]), 7.32; in assay [3] (setting [4]), 8.14.

As for `COc1ccnc(S(=O)(=O)Nc2cc3[nH]c(C(=O)c4cnn(-c5ccc(Oc6ccccc6F)cc5C)c4N)cc3cc2C)c1` [Example 5-1-510, N-[2-[5-amino-1-[4-(2-fluorophenoxy)-2-methylphenyl]pyrazole-4-carbonyl]-5-methyl-1H-indol-6-yl]-4-methoxypyridine-2-sulfonamide], the pIC50 in assay [1] (setting [4]) is 9.04; in assay [2] (setting [4]), 6.64; in assay [3] (setting [4]), 7.05.

The values are drawn from patent US10479780B2, “Aminopyrazole derivatives” (Chugai Seiyaku Kabushiki Kaisha, priority 2015, dated 2019).
